Source: patent US12527754B2, “Methods and compositions for preventing and treating metabolic syndrome induced by antipsychotic treatment and related diseases and conditions” (Tufts Medical Center, Inc., priority 2018, dated 2026)

Key:
[1] = MetS induced by high-fat diet (HFD) in mice; assay type: in vivo; conditions: C57Bl/j male mice on HFD, benserazide 50 mg/day p.o., 12 weeks
Description: In other experiments, we conducted a pre-clinical trial of benserazide on the development of MetS induced by high-fat diet (HFD). HFD was fed to C57Bl/j male mice (6 weeks of age). Benserazide, 50 mg/day, p.o., was administered for 12 weeks (five days/week). Differences (p<0.05) were considered as statistically significant (Mann-Whitney two-tailed test).

[2] = C57BL female mice, N = 10; end of 10-week treatment
Description: (§1) C57BL female mice (n=10 mice in each group) were treated with olanzapine (4 mg/kg, po) (control) or with a combination of olanzapine (4 mg/kg, po) and benserazide (100 mg/day, po), 5 days per week for 10 weeks.
(§2) Body weight was checked two times per week. Glucose tolerance, a marker of IR, was determined by a glucose tolerance test (GTT) at the end of the study (day 71). In addition, blood samples were analyzed for cholesterol (total) and triglycerides.

[3] = GTT at day 71; C57BL female mice, N = 10
Description: as §1, §2

NC(CO)C(=O)NNCc1ccc(O)c(O)c1O (centres unmarked) [Benserazide, seryl-(2,3,4-trihydroxybenzyl)-hydrazide]
Elevation of blood cholesterol induced by HFD, change ([1]; five days/week): −17% | Elevation of triglycerides induced by HFD, change ([1]; five days/week): −25% | Excessive weight gain induced by HFD, change ([1]; five days/week): −40% | Glucose tolerance impairment induced by HFD ([1]; result in words): attenuated | Effect on weight gain induced by olanzapine (benserazide 100 mg/day po with olanzapine 4 mg/kg po, 10 weeks, result in words): attenuated weight gain

Cc1cc2c(s1)Nc1ccccc1N=C2N1CCN(C)CC1 [Olanzapine]
Body weight, Day 1 (C57BL female mice, n = 10, olanzapine 4 mg/kg po with or without benserazide 100 mg/day po, 5 days per week for 10 weeks, Day 1): 17.4 ± 0.13 | Body weight, Day 71 (C57BL female mice, n = 10, olanzapine 4 mg/kg po with or without benserazide 100 mg/day po, 5 days per week for 10 weeks, Day 71): 34.0 ± 0.09 | Cholesterol (total, blood) [2]: 172.33 ± 4.536 | Triglycerides (blood) [2]: 151.00 ± 5.37 | Glucose levels 90 minutes after ingestion of sugar [3]: 520.55 ± 15.63 | Glucose levels baseline (before ingestion of sugar) [3]: 183.25 ± 10.49
